{"source": "patent US11612576B2", "about": "(Thiogenesis Therapeutics, Inc., priority 2017, dated 2023)", "key": {"[1]": {"assay": "Cysteamine and pantetheine in rat gastrointestinal contents six hours after dosing (Example 13)", "assay_type": "in vivo, Sprague-Dawley rats", "description": "In addition to the plasma samples, gastrointestinal contents (stomach contents, proximal small intestinal contents, distal small intestinal contents and cecum/colon contents) were obtained from rats at the end of the study (6 hours after dosing) and snap frozen. Tissue levels of cysteamine and pantetheine were measured in the gastrointestinal contents. The protocol for tissue analysis entailed (i) smashing frozen tissue fragments over dry ice to obtain small pieces; (ii) weighing several frozen tissue pieces (˜[…]) into a tared 1.5 ml microcentrifuge tube with two metal ball bearings and immediately storing on dry ice; (iii) homogenizing tissue fragments cryogenically using a Retsch Cryomill at 250 hertz for 5 minutes; (iv) thawing each sample on ice, adding two volumes of water (w:v., i.e. 2 microliters of water were added for each milligram of homogenized tissue) to make an approximately 1:3 dilution; (v) removing 20 ul of the resuspended tissue powder to a new tube, adding 2.2 ul of 50 mM TCEP (5 mM final concentration) and incubating for 45 minutes at 37 degrees C. (TCEP treated samples), or adding 2.2 ul of deioinized water in place of TCEP (no TCEP samples); (vi) adding 3.5 volumes of acetonitrile:0.1% formic acid, vortex mixing for 15 seconds, and then pelleting precipitated protein by centrifugation for 10 minutes at 14,000 rpm in a microcentrifuge at 4 degrees C.; (vii) transferring 25 ul of supernatant to a new tube containing 75 ul of ACN/0.1% FA; (vii) injecting samples on the LC-MS apparatus described above, using the same column and run conditions as for plasma samples."}, "[2]": {"conditions": "cited from earlier work"}, "[3]": {"assay": "Physical characteristics of TTI-0102 salt forms", "assay_type": "physicochemical", "conditions": "compared with free base", "description": "TTI-0102 was prepared as in Example 14. The crude product was obtained by evaporation of water and DMF. The residue was suspended in ethyl acetate/water; precipitated dicyclohexylurea (DCU) was filtered off. The solution was evaporated and suspended in methanol. The precipitate (unreacted pantothenic acid) was filtered off. The filtrate was concentrated and then dissolved in a small volume of methanol. After addition of dichloromethane the cystamine hydrochloride precipitated and was filtered off. After evaporation of solvent, the residue was crystallized from methanol:acetone (1:10) to provide TTI-1 hydrochloride.\nThe tartrate salt was formed and crystallized from a MeOH:DCM mixture. The solid form was filtered off (precipitate) and filtrate was evaporated."}, "[4]": {"molecular_target": "T1, tissue transglutaminase (transglutaminase 2, TG2) (Homo sapiens, UniProt P21980)", "T1 sequence (P21980 1-687)": "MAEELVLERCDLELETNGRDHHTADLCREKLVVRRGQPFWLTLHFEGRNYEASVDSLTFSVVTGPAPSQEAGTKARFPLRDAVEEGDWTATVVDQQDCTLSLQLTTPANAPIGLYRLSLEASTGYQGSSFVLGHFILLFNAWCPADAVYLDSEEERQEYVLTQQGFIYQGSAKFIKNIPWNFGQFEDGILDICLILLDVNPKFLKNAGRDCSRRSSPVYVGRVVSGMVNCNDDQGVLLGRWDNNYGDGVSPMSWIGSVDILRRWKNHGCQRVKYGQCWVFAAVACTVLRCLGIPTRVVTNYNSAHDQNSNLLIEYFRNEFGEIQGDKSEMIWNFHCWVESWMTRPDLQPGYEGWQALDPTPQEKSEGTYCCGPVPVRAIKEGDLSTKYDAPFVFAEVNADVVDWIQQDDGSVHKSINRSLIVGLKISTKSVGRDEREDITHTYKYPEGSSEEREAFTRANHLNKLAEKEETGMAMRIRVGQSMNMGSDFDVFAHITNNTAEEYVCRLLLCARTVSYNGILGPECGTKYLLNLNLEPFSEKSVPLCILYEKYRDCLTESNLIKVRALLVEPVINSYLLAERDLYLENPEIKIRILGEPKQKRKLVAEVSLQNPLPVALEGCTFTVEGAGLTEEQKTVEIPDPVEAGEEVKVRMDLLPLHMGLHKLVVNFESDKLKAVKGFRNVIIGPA", "conditions": "cited from earlier work"}, "mouse models of HD": {"tested_on": "mouse models of HD", "conditions": "cited from earlier work"}, "[5]": {"conditions": "in vivo; cited from earlier work"}, "[6]": {"assay": "Dissolution of the dose in saline before gavage", "assay_type": "physicochemical", "conditions": "120 mg/kg dose (311.68 mg/kg compound 2) in 3 milliliters of saline"}, "[7]": {"tested_on": "CYP1A2, CYP2B6, CYP2C8, CYP2C9, CYP2C19, CYP2D6, CYP2E1, CYP2A6, CYP3A4", "conditions": "in vitro; cited from earlier work"}, "[8]": {"tested_on": "CYP1A2, CYP2A6, CYP2B6, CYP2C8, CYP2C9, CYP2C19, CYP2D6, CYP2E1 and CYP3A4", "conditions": "in vitro; cited from earlier work"}, "[9]": {"tested_on": "P-gp, OCT2, BCRP, OATP1B1, OATP1B3, OAT1, OAT3, OCT1", "conditions": "in vitro; cited from earlier work"}, "[10]": {"tested_on": "matrix metalloproteinases (MMPs)", "conditions": "high concentrations (e.g. 25 millimolar); cited from earlier work"}, "Plasmodium Falciparum": {"tested_on": "Plasmodium Falciparum", "conditions": "in vitro and in mouse models of malaria; cited from earlier work"}, "Pseudomonas aeruginosa": {"tested_on": "Pseudomonas aeruginosa", "conditions": "cited from earlier work"}, "kidney fibrosis": {"tested_on": "kidney fibrosis", "conditions": "ureteral stenosis and renal ischemia/reperfusion injury; cited from earlier work"}, "[11]": {"tested_on": "erythrocytes from sickle cell anemia patients", "conditions": "cited from earlier work"}, "xenograft models": {"tested_on": "xenograft models", "conditions": "cited from earlier work"}, "[12]": {"assay": "Rat pharmacokinetic study of compound 2: plasma cysteamine after gavage", "assay_type": "in vivo, Sprague-Dawley rats", "conditions": "cysteamine HCl, 30 mg/kg cysteamine base", "description": "The compound 2 doses were prepared for 250 gram rats, but the actual masses of the rats at the time of drug administration varied from 267-300 grams, so the actual doses, normalized to body weight, ranged from 26.1-27.1 mg/kg in group 1, 51.7-56.2 mg/kg in group 2 and 108.3-109.5 mg/kg in group 3. Nonetheless, for convenience those doses are referred to as 30, 60 and 120 mg/kg.\nPlasma was obtained from blood by centrifugation and snap frozen."}, "[13]": {"conditions": "rat, in vivo", "description": "Thus in the discussion below, and in the accompanying figures, a “30 mg/kg” dose of TTI-0102 means 68.73 mg/kg was administered, a “60 mg/kg” dose of TTI-0102 means 137.46 mg/kg was administered and a “100 mg/kg” dose of TTI-0602 (aka compound 2) means 229.1 mg/kg was administered.\nEach of the four compounds was administered via gavage to three male Sprague-Dawley rats weighing approximately 300 grams. All doses were dissolved in 2.5 milliliters of saline.\nBlood samples were obtained from rats immediately after dosing (within one minute) and 10, 20, 30, 45, 60, 90, 120, 180, 240, 300 and 360 minutes after dosing via carotid artery catheters surgically implanted before the PK study. Plasma was obtained from blood by centrifugation, snap frozen and stored at −80 degrees Celsius. Several days later plasma samples were thawed on ice and each aliquoted to two paired tubes (20 μL per tube), one of which was processed for measurement of thiols (after quantitative disulfide bond reduction), while the other was processed for analysis of disulfides.\nBriefly, 2.2 ul of freshly prepared 50 mM TCEP stock solution was added to 20 ul of plasma and the sample incubated at 37 degrees C. for 45 minutes. The volume of plasma in the paired (non-reduced) sample was adjusted by adding 2.2 ul of deionized water.\nAfter the TCEP reduction step all plasma samples were deproteinized by adding 3.5 volumes of ice cold acetonitrile (ACN)/1% formic acid (FA) solution containing internal standards (77 μL of ACN/1% FA solution was added to 22.2 μL of plasma).\nThe denatured protein was pelleted by centrifugation at 14,000 rpm for 10 minutes at 4 degrees C. in a microcentrifuge. The supernatant (25 ul) was removed to a new tube, mixed with 75 ul of ACN/0.1% FA solution and injected directly into a 150×2 mm Atlantis hydrophilic interaction liquid chromatography (HILIC) column (Waters; Milford, Mass.). Metabolites were analyzed using a Nexera X2 U-HPLC (Shimadzu) and a Q-Exactive hybrid quadrupole Orbitrap mass spectrometer (Thermo Fisher Scientific). […]"}}, "note": "Where a name gives a salt, the structure may show the parent alone. Read-outs that look alike come from different tables or passages of the source."}
{"smiles": "CC(C)(CO)[C@@H](O)C(=O)NCCC(=O)NCCSSCCN", "note": "[compound 1, cysteamine-(R)-pantetheine disulfide]", "values": [{"measurement": "fraction of small intestinal pantetheine in the form of the thiol", "setting": "[1]; compound 1 100 mg/kg, no TCEP vs TCEP samples", "result": "about half"}, {"measurement": "pantetheine at all levels of the gastrointestinal tract (stomach, proximal and distal small intestine, colon)", "setting": "[1]; compound 1 100 mg/kg, six hours after dosing", "result": "high levels of pantetheine are present"}, {"measurement": "colon contents (TCEP reduced)", "setting": "[1]; compound 1, six hours after dosing", "result": "high concentrations of both cysteamine and pantetheine"}]}
{"smiles": "NCCS", "note": "[cysteamine bitartrate]", "values": [{"measurement": "Cmax", "setting": "[2]; read-out: C max of cysteamine, cysteamine bitartrate 20 mg/kg cysteamine base equivalent", "result": 81.9, "unit": "µM"}]}
{"smiles": "CC(C)(CO)[C@@H](O)C(=O)NCCC(=O)NCCSSCCN", "note": "[acetate salt of TTI-0102]", "values": [{"measurement": "stability of salt form", "setting": "[3]", "result": "more stable than the free base"}]}
{"smiles": "NCCS.O=C(O)C(O)C(O)C(=O)O", "note": "(stereo not shown) [cysteamine bitartrate]", "values": [{"measurement": "fraction of cysteamine eliminated by 150 minutes (inferred)", "setting": "[2]; cysteamine bitartrate 20 mg/kg", "result": "over 95%"}, {"measurement": "time by which cysteamine levels returned to baseline", "setting": "[2]; cysteamine bitartrate 20 mg/kg", "result": "≤ 2", "unit": "h"}, {"measurement": "tissue half life of cysteamine", "setting": "[2]; cysteamine bitartrate 20 mg/kg", "result": "25 to 29", "unit": "min"}]}
{"smiles": "NCCSSCCN", "note": "[cystamine]", "values": [{"measurement": "inhibition of tissue transglutaminase (TG2)", "setting": "[4]", "result": "TG2 inhibitor"}, {"measurement": "effects in several mouse models of Huntington's disease", "setting": "mouse models of HD; mouse, in vivo", "result": "improves motor function and extends life-span"}]}
{"smiles": "CC(C)(COP(=O)(O)O)[C@@H](O)C(=O)NCCC(=O)NCCS", "note": "[4-phosphopantetheine]", "values": [{"measurement": "half life in blood", "setting": "[5]", "result": "over 3 hours"}]}
{"smiles": "CC(=O)NCCSSCCNC(=O)CCNC(=O)[C@H](O)C(C)(C)CO", "note": "[compound 2, N-acetylcysteamine-(R)-pantetheine disulfide]", "values": [{"measurement": "dissolution of dose in saline", "setting": "[6]", "result": "did not completely dissolve in saline"}]}
{"smiles": "NCCS", "note": "[cysteamine, 2-aminoethanethiol]", "values": [{"measurement": "half life in blood", "setting": "[5]", "result": "about 25 minutes"}, {"measurement": "metabolism by CYP1A2, CYP2B6, CYP2C8, CYP2C9, CYP2C19, CYP2D6 and CYP2E1", "setting": "[7]", "result": "likely to be metabolized by multiple CYP enzymes"}, {"measurement": "metabolism by CYP2A6 or CYP3A4", "setting": "[7]", "result": "not by CYP2A6 or CYP3A4"}, {"measurement": "inhibition of CYP1A2, CYP2A6, CYP2B6, CYP2C8, CYP2C9, CYP2C19, CYP2D6, CYP2E1 and CYP3A4", "setting": "[8]", "result": "not an inhibitor"}, {"measurement": "substrate of BCRP, OATP1B1, OATP1B3, OAT1, OAT3 and OCT1", "setting": "[9]", "result": "not a substrate"}, {"measurement": "substrate of P-gp and OCT2", "setting": "[9]", "result": "is a substrate"}, {"measurement": "inhibition of tissue transglutaminase (TG2)", "setting": "[4]", "result": "inhibits"}, {"measurement": "inhibition of matrix metalloproteinases", "setting": "[10]", "result": "inhibits"}, {"measurement": "proliferation of Plasmodium Falciparum", "setting": "Plasmodium Falciparum", "result": "inhibits proliferation"}, {"measurement": "activity against Pseudomonas aeruginosa and other CF pathogens", "setting": "Pseudomonas aeruginosa", "result": "bactericidal"}, {"measurement": "efficacy in mouse models of kidney fibrosis", "setting": "kidney fibrosis", "result": "effective"}, {"measurement": "sickling under hypoxic conditions", "setting": "[11]", "result": "marked inhibition of sickling"}, {"measurement": "survival of mice", "setting": "xenograft models", "result": "prolonged survival of mice in a dose-dependent manner without toxicity"}, {"measurement": "beneficial effects in R6/2 HD mouse model", "setting": "mouse models of HD; R6/2 mouse model", "result": "amelioration of weight loss and motor abnormalities, and prolongation of survival"}]}
{"smiles": "Cl.NCCS", "note": "[cysteamine HCl, cysteamine hydrochloride]", "values": [{"measurement": "peak plasma cysteamine concentration", "setting": "[12]", "result": "over 200 uM"}, {"measurement": "time by which cysteamine concentration declined to less than half maximal", "setting": "[12]", "result": "≤ 90", "unit": "min"}, {"measurement": "time in which half of the dose is absorbed", "setting": "[13]", "result": "one"}, {"measurement": "time of peak observed concentration after gavage", "setting": "[13]", "result": 10, "unit": "min"}, {"measurement": "Cmax", "setting": "[13]; 30 mg/kg", "result": "~55.3", "unit": "µM"}]}
